According to patent publication US8143257B2, “Substituted phenols as active agents inhibiting VEGF production” (PTC Therapeutics, Inc., priority 2004, dated 2012):

What follows are molecules tested on hypoxia-inducible endogenous VEGF expression (assay: Assay to evaluate effect on hypoxia-inducible endogenous VEGF expression (VEGF ELISA, HeLa cells)). Conditions: HeLa cells cultured 24-48 hours under hypoxic conditions (1% O2, 5% CO2); VEGF in conditioned media by ELISA; read-out: ELISA EC50 (effective concentration required to lower the amount of VEGF translation by 50%).
Format: cell-based
Experimental: Assay to Evaluate Effect on Hypoxia-Inducible Endogenous VEGF Expression
The ability of the compounds of the invention to modulate hypoxia-inducible endogenous VEGF expression is analyzed as follows. VEGF protein levels are monitored by an ELISA assay (R&D Systems). Briefly, HeLa cells are cultured for 24-48 hours under hypoxic conditions (1% O2, 5% CO2, balanced with nitrogen) in the presence or absence of a compound of the invention. The conditioned media is then assayed by ELISA, and the concentration of VEGF is calculated from the standard ELISA curve of each assay.
A dose-response analysis is performed using the ELISA assay and conditions described above. A series of, e.g., seven different concentrations are analyzed. In parallel, a dose-response cytotoxicity assay is performed using Cell Titer Glo (Promega) under the same conditions as the ELISA to ensure that the inhibition of VEGF expression is not due to the cytotoxicity. Dose-response curves are plotted using percentage inhibition versus concentration of the compound, and EC50 and CC50 values are generated for each compound with the maximal inhibition set as 100% and the minimal inhibition as 0%.
The most preferred compounds of the invention are those with μM values of 3 or less.

Row | SMILES | EC50
1 | Cc1ccc2cc(OC(=O)N3CCCC3)ccc2n1 [Pyrrolidine-1-carboxylic acid 2-methyl-quinolin-6-yl ester] | > 30 µM

Same assay, conditions: Homo sapiens, HeLa, read-out: ELISA EC50 (effective concentration required to lower the amount of VEGF translation by 50%)

Row | SMILES | EC50
2 | CC1CCN(C(=O)Oc2ccccc2Br)CC1 [4-Methyl-piperidine-1-carboxylic acid 2-bromo-phenyl ester] | > 30 µM
3 | Cc1ccc(OC(=O)N2CCCN(C)CC2)c(Br)c1 [4-Methyl-[1,4]diazepane-1-carboxylic acid 2-bromo-4-methyl-phenyl ester] | > 30 µM
4 | CN(C(=O)Oc1ccc2ccccc2c1)c1ccccc1 [Methyl-phenyl-carbamic acid naphthalen-2-yl ester] | > 10 µM

Same assay, conditions: Homo sapiens; HeLa cells cultured 24-48 hours under hypoxic conditions (1% O2, 5% CO2); VEGF in conditioned media by ELISA; read-out: ELISA EC50 (effective concentration required to lower the amount of VEGF translation by 50%)

Row | SMILES | EC50
5 | CC(=O)c1c(OC(=O)N2CCC(C)CC2)ccc2ccccc12 [4-Methyl-piperidine-1-carboxylic acid 1-acetyl-naphthalen-2-yl ester] | 1.85 µM
6 | O=C(Oc1cc(Cl)c(Cl)cc1Cl)N1CCc2ccccc2C1 [3,4-Dihydro-1H-isoquinoline-2-carboxylic acid 2,4,5-trichloro-phenyl ester] | 18.7 µM
7 | CC(=O)c1c(OC(=O)N2CCc3cccnc32)ccc2ccccc12 [2,3-Dihydro-pyrrolo[2,3-b]pyridine-1-carboxylic acid 1-acetyl-naphthalen-2-yl ester] | > 30 µM
8 | Cc1ccc(OC(=O)N2CCCC2)c(Br)c1 [Pyrrolidine-1-carboxylic acid 2-bromo-4-methyl-phenyl ester] | > 30 µM
9 | O=C(Oc1cc2ccccc2cn1)N1CCN(c2ccccc2)CC1 [4-Phenyl-piperazine-1-carboxylic acid isoquinolin-3-yl ester] | > 30 µM
10 | O=C(Nc1ccc2ccccc2c1Br)N1CCCCC1 [Piperidine-1-carboxylic acid (1-bromo-naphthalen-2-yl)-amide] | > 10 µM
11 | O=C(Oc1ccc2ccccc2c1Br)N1CCC2(CC1)OCCO2 [1,4-Dioxa-8-aza-spiro[4.5]decane-8-carboxylic acid 1-bromo-naphthalen-2-yl ester] | 1.51 µM
12 | COc1ccc2ccc(OC(=O)N3CCC(C(O)(c4ccccc4)c4ccccc4)CC3)c(Br)c2c1 [4-(Hydroxy-diphenyl-methyl)-piperidine-1-carboxylic acid 1-bromo-7-methoxy-naphthalen-2-yl ester] | > 10 µM
13 | CCc1cccc(NC(=O)Oc2ccc3ccccc3c2)c1 [(3-Ethyl-phenyl)-carbamic acid naphthalen-2-yl ester] | > 30 µM
14 | O=C(Oc1ccc2ccccc2c1Br)N1CCC(C(O)(c2ccccc2)c2ccccc2)CC1 [4-(Hydroxy-diphenyl-methyl)-piperidine-1-carboxylic acid 1-bromo-naphthalen-2-yl ester] | 0.0202 µM
15 | O=C(Oc1ccc2cc(Br)ccc2c1Br)N1CCCCC1 [Piperidine-1-carboxylic acid 1,6-dibromo-naphthalen-2-yl ester] | > 30 µM
16 | O=C(Oc1cc(Cl)c(Cl)cc1Cl)N1CCN(c2ccccc2)CC1 [4-Phenyl-piperazine-1-carboxylic acid 2,4,5-trichloro-phenyl ester] | > 30 µM
17 | CC1CCN(C(=O)Oc2cc(Cl)c(Cl)cc2Cl)CC1 [4-Methyl-piperidine-1-carboxylic acid 2,4,5-trichloro-phenyl ester] | 16.2 µM
18 | Cc1ccc2cc(OC(=O)N3CCCCC3)ccc2n1 [Piperidine-1-carboxylic acid 2-methyl-quinolin-6-yl ester] | > 30 µM
19 | Cc1ccc(OC(=O)N2CCC(C)CC2)c(Br)c1 [4-Methyl-piperidine-1-carboxylic acid 2-bromo-4-methyl-phenyl ester] | > 30 µM
20 | O=C(Oc1c(Cl)cc(Cl)cc1Cl)N1CCCCC1 [Piperidine-1-carboxylic acid 2,4,6-trichloro-phenyl ester] | > 30 µM
21 | CC1CCN(C(=O)Oc2ccc3ccccc3c2Br)CC1 [4-Methyl-piperidine-1-carboxylic acid 1-bromo-naphthalen-2-yl ester] | 0.469 µM
22 | O=C(Oc1cc2ccccc2cn1)N1CCC(Cc2ccccc2)CC1 [4-Benzyl-piperidine-1-carboxylic acid isoquinolin-3-yl ester] | > 30 µM
23 | COc1ccc2ccc(OC(=O)N3CCN(c4ccc(Cl)cc4)CC3)c(Br)c2c1 [4-(4-Chloro-phenyl)-piperazine-1-carboxylic acid 1-bromo-7-methoxy-naphthalen-2-yl ester] | > 10 µM
24 | O=C(Oc1ccc2ccccc2c1Br)N1CCCCC1 [Piperidine-1-carboxylic acid 1-bromo-naphthalen-2-yl ester] | 0.27 µM
